Patent US20250276964A1 (Novartis AG, priority 2021, published 2025)

Molecular target: T1, WIZ (Homo sapiens, UniProt O95785+Q96SW2)
T1 construct: expressed in transfected cells
Test: Quantification of WIZ protein levels in HiBit tag fusion protein assay (WIZ HiBit assay in 293T cells)
Type: cell-based
Conditions: for Dmax at 25 µM / remaining activity at 25 µM: HEK-293T; for Dmax at 25 µM: 100 minus Amax at 25 uM, read-out: % degradation of WIZ (100-Amax); for remaining activity at 25 µM: DMSO-normalized, curve-fitted percentage of WIZ-HiBit remaining at 25 uM, read-out: WIZ Amax; for DC50: WIZ HiBit assay in 293T cells, 10-point, 5-fold dilution, highest concentration 25 μM, about 18 hours, read-out: WIZ AC50
Protocol: The HiBit system from Promega was used to develop high-throughput and quantitative assays to measure changes in WIZ protein levels in response to compounds. The HiBit tag was derived from a split Nanoluciferase and has the following protein sequence: […] (SEQ ID NO: 1). The complementary fragment of Nanoluciferase (known as LgBit, from Promega), was added to the HiBit tag to form an active Nanoluciferase enzyme whose activity can be precisely measured. In this way, the levels of a fusion protein with the HiBit tag can be quantified in cell lysates.
Lentiviral vectors, based on the Invitrogen™ pLenti6.2/V5 DEST backbone were constructed that places the HiBit tag upstream of WIZ and expressed the fusion protein from an HSVTK promotor.
To ensure moderate and consistent expression of the HiBit-WIZ fusion protein across all cells in the population, stable cell lines were constructed from cells harboring a single copy of the construct. Lentivirus packaged with the constructs were made using the ViraPower™kit from Invitrogen™. 293T cells from ATCC (Catalog number: CRL-3216), were infected with the virus at low multiplicity of infection and selected by 5 μg/mL blasticidin in culture media for 2 weeks.
The levels of HiBit-WIZ tagged fusion proteins in compound-treated cell lines were measured as follows:
On day 1, cells were diluted to 1.0×10^6 cells/ml in normal growth medium. 20 μL of cell suspension were plated in each well of a solid white 384-well plate. Plates were incubated overnight in a 37° C. and 5% CO2 humidified tissue culture incubator.
On day 2, serial dilutions of compounds were made in 384-well plates. Compound plates were set up with DMSO in columns 1, 2, 23, 24, and 10-point compound dilution series in column 3-12 and column 13-22. 10 mM stock solution of compound were placed into column 3 or 13 and a 1:5 serial dilution was carried out until there was a 10-point dilution series per compound. 50 nL of diluted compounds were transferred into the plated cells by Echo® (Labcyte) acoustic transfer. The highest concentration of compound was 25 μM. Plates were incubated overnight (about 18 hours) in a 37° C. and 5% CO2 humidified tissue culture incubator.
On day 3, plates were removed from the incubator and allowed to equilibrate at room temperature for 60 minutes. HiBit substrate (Nano-Glo® HiBit Lytic Detection System, Promega Catalogue number: N3050) was added as described by the manufacturers protocols. Plates were incubated at room temperature for 30 minutes and luminescence was read using an EnVision® reader (PerkinElmer®). Data was analyzed and visualized using the Spotfire® software package.
WIZ Amax reflects the DMSO-normalized, curve-fitted percentage of WIZ-HiBit remaining at 25 uM. It was calculated by normalizing DMSO controls to 100%, parametric curve fitting of the dose response data (10-point, 5-fold), followed by calculation of response at 25 uM using the fitted equation (nd=not determined).

T1 sequence (O95785 whole entry): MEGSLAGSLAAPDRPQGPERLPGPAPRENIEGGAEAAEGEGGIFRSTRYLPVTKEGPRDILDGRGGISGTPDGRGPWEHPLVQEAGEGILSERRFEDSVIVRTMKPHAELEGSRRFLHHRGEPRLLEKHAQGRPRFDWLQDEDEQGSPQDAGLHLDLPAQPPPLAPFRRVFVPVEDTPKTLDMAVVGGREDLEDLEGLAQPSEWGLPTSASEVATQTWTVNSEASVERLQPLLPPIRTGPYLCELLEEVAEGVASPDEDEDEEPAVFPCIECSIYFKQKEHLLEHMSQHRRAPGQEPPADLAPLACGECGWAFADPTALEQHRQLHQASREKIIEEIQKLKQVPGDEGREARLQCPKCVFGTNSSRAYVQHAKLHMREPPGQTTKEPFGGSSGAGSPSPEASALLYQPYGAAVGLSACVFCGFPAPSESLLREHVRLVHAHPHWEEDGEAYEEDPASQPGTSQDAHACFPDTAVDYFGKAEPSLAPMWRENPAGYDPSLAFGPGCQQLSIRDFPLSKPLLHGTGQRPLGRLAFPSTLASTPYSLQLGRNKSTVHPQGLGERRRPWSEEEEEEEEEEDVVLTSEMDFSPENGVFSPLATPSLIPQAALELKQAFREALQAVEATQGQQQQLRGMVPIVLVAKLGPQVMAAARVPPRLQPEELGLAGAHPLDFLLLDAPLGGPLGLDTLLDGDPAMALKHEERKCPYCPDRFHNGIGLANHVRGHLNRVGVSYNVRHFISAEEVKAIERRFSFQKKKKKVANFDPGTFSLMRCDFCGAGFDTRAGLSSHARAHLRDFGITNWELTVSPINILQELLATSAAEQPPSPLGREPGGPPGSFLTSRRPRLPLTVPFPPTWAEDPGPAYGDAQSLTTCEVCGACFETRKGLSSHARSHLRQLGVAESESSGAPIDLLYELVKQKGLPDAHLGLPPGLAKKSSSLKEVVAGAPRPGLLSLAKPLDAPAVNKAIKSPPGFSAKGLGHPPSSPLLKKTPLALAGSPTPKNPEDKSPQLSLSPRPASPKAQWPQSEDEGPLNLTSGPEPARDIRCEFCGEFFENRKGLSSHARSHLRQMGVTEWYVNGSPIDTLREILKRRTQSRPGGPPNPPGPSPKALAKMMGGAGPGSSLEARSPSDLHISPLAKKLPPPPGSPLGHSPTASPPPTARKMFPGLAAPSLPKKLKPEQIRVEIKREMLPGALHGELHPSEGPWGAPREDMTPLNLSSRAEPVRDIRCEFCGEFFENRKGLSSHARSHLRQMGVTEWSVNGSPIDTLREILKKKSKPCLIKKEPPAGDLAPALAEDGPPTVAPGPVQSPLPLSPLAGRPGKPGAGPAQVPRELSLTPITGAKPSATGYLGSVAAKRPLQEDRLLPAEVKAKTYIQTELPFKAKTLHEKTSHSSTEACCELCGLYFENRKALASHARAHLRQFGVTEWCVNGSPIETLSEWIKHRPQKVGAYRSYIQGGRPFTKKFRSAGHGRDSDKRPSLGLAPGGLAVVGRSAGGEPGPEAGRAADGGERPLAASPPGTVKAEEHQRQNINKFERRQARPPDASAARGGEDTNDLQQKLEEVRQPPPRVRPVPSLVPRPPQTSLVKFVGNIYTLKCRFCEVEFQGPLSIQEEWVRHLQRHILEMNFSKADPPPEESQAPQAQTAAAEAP
T1 sequence (Q96SW2 whole entry): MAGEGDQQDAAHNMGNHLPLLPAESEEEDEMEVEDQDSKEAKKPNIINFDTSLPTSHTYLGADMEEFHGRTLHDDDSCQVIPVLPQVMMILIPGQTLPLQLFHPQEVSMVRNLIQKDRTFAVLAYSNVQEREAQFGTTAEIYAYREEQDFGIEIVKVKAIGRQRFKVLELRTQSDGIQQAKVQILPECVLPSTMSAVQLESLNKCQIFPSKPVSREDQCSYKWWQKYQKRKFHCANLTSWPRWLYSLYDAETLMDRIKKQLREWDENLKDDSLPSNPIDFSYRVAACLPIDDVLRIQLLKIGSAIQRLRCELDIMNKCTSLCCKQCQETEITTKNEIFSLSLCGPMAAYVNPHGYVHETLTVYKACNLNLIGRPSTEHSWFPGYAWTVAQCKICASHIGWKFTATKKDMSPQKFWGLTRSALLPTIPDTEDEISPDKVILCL
T1 sequence (Q16531 whole entry partner): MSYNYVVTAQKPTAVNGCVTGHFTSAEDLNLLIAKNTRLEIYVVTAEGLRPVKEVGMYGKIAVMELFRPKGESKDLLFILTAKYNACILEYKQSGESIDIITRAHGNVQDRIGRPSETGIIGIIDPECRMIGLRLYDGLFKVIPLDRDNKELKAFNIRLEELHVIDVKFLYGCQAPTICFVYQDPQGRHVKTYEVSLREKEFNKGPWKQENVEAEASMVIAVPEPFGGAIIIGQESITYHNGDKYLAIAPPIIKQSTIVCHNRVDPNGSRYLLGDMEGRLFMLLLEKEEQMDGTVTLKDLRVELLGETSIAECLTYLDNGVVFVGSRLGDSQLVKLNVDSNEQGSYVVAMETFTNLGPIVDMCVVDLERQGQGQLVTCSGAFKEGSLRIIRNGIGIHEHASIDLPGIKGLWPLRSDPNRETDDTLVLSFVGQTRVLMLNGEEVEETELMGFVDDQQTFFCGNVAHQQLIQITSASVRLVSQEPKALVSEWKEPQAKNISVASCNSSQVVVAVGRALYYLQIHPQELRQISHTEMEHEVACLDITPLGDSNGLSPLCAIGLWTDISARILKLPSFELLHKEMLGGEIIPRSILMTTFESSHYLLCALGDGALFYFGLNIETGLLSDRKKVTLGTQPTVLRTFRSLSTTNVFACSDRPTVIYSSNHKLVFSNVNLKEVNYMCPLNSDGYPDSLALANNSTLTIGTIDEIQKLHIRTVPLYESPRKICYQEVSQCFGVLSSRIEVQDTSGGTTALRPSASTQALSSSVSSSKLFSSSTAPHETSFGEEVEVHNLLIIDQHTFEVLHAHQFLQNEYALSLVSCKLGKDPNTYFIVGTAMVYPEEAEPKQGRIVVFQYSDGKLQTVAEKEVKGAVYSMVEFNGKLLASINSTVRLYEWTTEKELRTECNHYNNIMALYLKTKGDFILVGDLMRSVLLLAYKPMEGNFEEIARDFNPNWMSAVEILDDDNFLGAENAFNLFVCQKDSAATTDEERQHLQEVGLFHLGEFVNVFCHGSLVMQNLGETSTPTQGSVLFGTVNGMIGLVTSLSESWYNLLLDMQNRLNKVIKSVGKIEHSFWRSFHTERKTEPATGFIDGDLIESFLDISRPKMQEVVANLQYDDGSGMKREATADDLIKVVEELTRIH

Structure (SMILES)	Dmax at 25 µM	remaining activity at 25 µM	DC50
Cc1ccccc1CN1CCC(Cc2ccc3onc(N4CCC(=O)NC4=O)c3c2)CC1 [Example 12, 1-(5-((1-(2-methylbenzyl)piperidin-4-yl)methyl)benzo[d]isoxazol-3-yl)dihydropyrimidine-2,4(1H,3H)-dione]	90%	10%	0.044 µM
O=C1CCN(c2noc3ccc(CC4CCN(CC(F)(F)F)CC4)cc23)C(=O)N1 [Example 13, 1-(5-((1-(2,2,2-trifluoroethyl)piperidin-4-yl)methyl)benzo[d]isoxazol-3-yl)dihydropyrimidine-2,4(1H,3H)-dione]	89%	11%	0.039 µM
CC(C)S(=O)(=O)N1CCC(Cc2ccc3onc(N4CCC(=O)NC4=O)c3c2)CC1 [Example 14, 1-(5-((1-(isopropylsulfonyl)piperidin-4-yl)methyl)benzo[d]isoxazol-3-yl)dihydropyrimidine-2,4(1H,3H)-dione]	90%	10%	0.014 µM
O=C1CCN(c2noc3ccc(CN4CCN(CC5CCCCC5)CC4)cc23)C(=O)N1 [Example 21, 1-(5-((4-(cyclohexylmethyl)piperazin-1-yl)methyl)benzo[d]isoxazol-3-yl)dihydropyrimidine-2,4(1H,3H)-dione]	90%	10%	0.019 µM
CN1CCN(Cc2ccc3onc(N4CCC(=O)NC4=O)c3c2)CC1 [Example 22, 1-(5-((4-methylpiperazin-1-yl)methyl)benzo[d]isoxazol-3-yl)dihydropyrimidine-2,4(1H,3H)-dione]	91%	9%	0.01 µM
O=C1CCN(c2noc3ccc(CN4CCN(CC5CCOCC5)CC4)cc23)C(=O)N1 [Example 23, 1-(5-((4-((tetrahydro-2H-pyran-4-yl)methyl)piperazin-1-yl)methyl)benzo[d]isoxazol-3-yl)dihydropyrimidine-2,4(1H,3H)-dione]	91%	9%	0.004 µM
CC(C)CN1CCN(Cc2ccc3onc(N4CCC(=O)NC4=O)c3c2)CC1 [Example 24, 1-(5-((4-isobutylpiperazin-1-yl)methyl)benzo[d]isoxazol-3-yl)dihydropyrimidine-2,4(1H,3H)-dione]	89%	11%	0.037 µM
O=C1CCN(c2noc3ccc(CN4CCN(Cc5ccccc5)CC4)cc23)C(=O)N1 [Example 25, 1-(5-((4-benzylpiperazin-1-yl)methyl)benzo[d]isoxazol-3-yl)dihydropyrimidine-2,4(1H,3H)-dione]	87%	13%	0.13 µM
O=C1CCN(c2noc3ccc(CN4CCN(Cc5cccnc5)CC4)cc23)C(=O)N1 [Example 26, 1-(5-((4-(pyridin-3-ylmethyl)piperazin-1-yl)methyl)benzo[d]isoxazol-3-yl)dihydropyrimidine-2,4(1H,3H)-dione]	86%	14%	0.19 µM
O=C1CCN(c2noc3ccc(CN4CCN(Cc5cccc(F)c5)CC4)cc23)C(=O)N1 [Example 27, 1-(5-((4-(3-fluorobenzyl)piperazin-1-yl)methyl)benzo[d]isoxazol-3-yl)dihydropyrimidine-2,4(1H,3H)-dione]	86%	14%	0.21 µM
C[C@H]1CN(Cc2ccc3onc(N4CCC(=O)NC4=O)c3c2)CCN1CC1CCCCC1 [Example 28, (S)-1-(5-((4-(cyclohexylmethyl)-3-methylpiperazin-1-yl)methyl)benzo[d]isoxazol-3-yl)dihydropyrimidine-2,4(1H,3H)-dione]	90%	10%	0.0054 µM
CC(C)CN1CCN(Cc2ccc3onc(N4CCC(=O)NC4=O)c3c2)C[C@@H]1C [Example 30, (S)-1-(5-((4-isobutyl-3-methylpiperazin-1-yl)methyl)benzo[d]isoxazol-3-yl)dihydropyrimidine-2,4(1H,3H)-dione]	91%	9%	0.0045 µM

Further lines, results first:

Dmax at 25 µM	remaining activity at 25 µM	DC50	Structure (SMILES)
91%	9%	0.0069 µM	C[C@H]1CN(Cc2ccc3onc(N4CCC(=O)NC4=O)c3c2)CCN1CC1CCOCC1 [Example 31, (S)-1-(5-((3-methyl-4-((tetrahydro-2H-pyran-4-yl)methyl)piperazin-1-yl)methyl)benzo[d]isoxazol-3-yl)dihydropyrimidine-2,4(1H,3H)-dione]
91%	9%	0.099 µM	CC(C)CN1CCN(Cc2ccc3onc(N4CCC(=O)NC4=O)c3c2)[C@@H](C)C1 [Example 32, (S)-1-(5-((4-isobutyl-2-methylpiperazin-1-yl)methyl)benzo[d]isoxazol-3-yl)dihydropyrimidine-2,4(1H,3H)-dione]
88%	12%	0.032 µM	CC(C)CN1CCN(Cc2ccc3onc(N4CCC(=O)NC4=O)c3c2)[C@H](C)C1 [Example 33, (R)-1-(5-((4-isobutyl-2-methylpiperazin-1-yl)methyl)benzo[d]isoxazol-3-yl)dihydropyrimidine-2,4(1H,3H)-dione]
89%	11%	0.04 µM	CC(C)CN1CCN(Cc2ccc3onc(N4CCC(=O)NC4=O)c3c2)C[C@H]1C [Example 34, (R)-1-(5-((4-isobutyl-3-methylpiperazin-1-yl)methyl)benzo[d]isoxazol-3-yl)dihydropyrimidine-2,4(1H,3H)-dione]
80%	20%	0.26 µM	CC(C)[C@H]1CN(Cc2ccc3onc(N4CCC(=O)NC4=O)c3c2)CCN1C [Example 37, (S)-1-(5-((3-isopropyl-4-methylpiperazin-1-yl)methyl)benzo[d]isoxazol-3-yl)dihydropyrimidine-2,4(1H,3H)-dione]
76%	24%	0.14 µM	CC(C)[C@H]1CN(Cc2ccc3onc(N4CCC(=O)NC4=O)c3c2)CCN1CC1CCOCC1 [Example 38, (S)-1-(5-((3-isopropyl-4-((tetrahydro-2H-pyran-4-yl)methyl)piperazin-1-yl)methyl)benzo[d]isoxazol-3-yl)dihydropyrimidine-2,4(1H,3H)-dione]
82%	18%	1.01 µM	CC(C)(C)OC(=O)N1CCCC(Cc2ccc3onc(N4CCC(=O)NC4=O)c3c2)C1 (stereo not drawn) [Example 42, tert-butyl 3-((3-(2,4-dioxotetrahydropyrimidin-1 (2H)-yl)benzo[d]isoxazol-5-yl)methyl)piperidine-1-carboxylate]
78%	22%	0.94 µM	O=C1CCN(c2noc3ccc(CC4CCCNC4)cc23)C(=O)N1 (stereo not drawn) [Example 43, 1-(5-(piperidin-3-ylmethyl)benzo[d]isoxazol-3-yl)dihydropyrimidine-2,4(1H,3H)-dione]
77%	23%	0.475 µM	O=C1CCN(c2noc3ccc(CC4CCCN(CC5CCCCC5)C4)cc23)C(=O)N1 (stereo not drawn) [Example 44, 1-(5-((1-(cyclohexylmethyl)piperidin-3-yl)methyl)benzo[d]isoxazol-3-yl)dihydropyrimidine-2,4(1H,3H)-dione]
